“Also recorded” adds a separate entry of the source. One block for each compound: values may come before it.
Assays:
Format in all cases: physicochemical
[1] = Solubility of diols in fully demineralized water
[2] = Solubility of mixture A + diols; settings: 10g of substance added to 90g of mixture A
Method: 10g of each of the following substances was added to 90g of mixture A to obtain solutions (Table 3).

[3] = Surface tension of mixture A with water or diols; settings: for surface tension (change against addition of 10 parts of water): 10 parts added to 90 parts of mixture A, application concentration of 1% in water; for Surface tension, 1% in water, mN/m: 90.0 parts mixture A + 10.0 parts of the substance
Method: The surface tension of mixtures of 90 parts of mixture A from example 1 with 10 parts of water or diols respectively was determined (Table 5): Table 5

[4] = Solubility of various carboxylic acid salts + diols (appearance after stirring 3 h)
Method: Various carboxylic acid salts were mixed with diols in order to test whether homogenous concentrates could be obtained: […]
In example 4c, 10 g of 1-(2-ethyl hexyl) glycerol ether or of 1,2-octanediol, was added to an aqueous potassium sorbate solution in order to obtain solutions (Table 4c). Table 4c […]
In example 4e, 10g of 1-(2-ethyl hexyl) glycerol ether or of 1,2-octanediol was added to aqueous mixtures of potassium sorbate with sodium benzoate (weight ratio 1/1) in order to obtain solutions (Table 4e) Table 4e

[5] = 10.0 diol in potassium sorbate 5.0 / sodium benzoate 5.0 / water 80.0
[6] = 10.0 diol in potassium sorbate 10.0 / sodium benzoate 10.0 / water 70.0
[7] = 10.0 diol in potassium sorbate 10.0 / water 80.0
[8] = 10.0 diol in potassium sorbate 15.0 / sodium benzoate 15.0 / water 60.0
[9] = 10.0 diol in potassium sorbate 20.0 / water 70.0
[10] = 10.0 diol in potassium sorbate 22.5 / sodium benzoate 22.5 / water 45.0
[11] = 10.0 diol in potassium sorbate 30.0 / water 60.0
[12] = 10.0 diol in potassium sorbate 45.0 / water 45.0
[13] = 10.0 diol in sodium benzoate 10.0 / water 80.0
[14] = 10.0 diol in sodium benzoate 20.0 / water 70.0
[15] = 10.0 diol in sodium benzoate 30.0 / water 60.0
[16] = 10.0 diol in sodium benzoate 45.0 / water 45.0
[17] = 10.0 parts diol in potassium formate 45.0 / fully demineralized water 45.0
[18] = 10.0 parts diol in sodium propionate 30.0 / fully demineralized water 60.0

SMILES: CCCCCCCCCCC(O)CO (stereo not drawn) [1,2-dodecanediol]
Solubility [1]: < 0.1%
Solubility of mixture A + diols [2]: dissolve; also recorded: clear solution

SMILES: CCCCC(O)CO (stereo not drawn) [1,2-hexanediol]
Solubility [1]: Unlimited
Solubility of mixture A + diols [2]: clear solution

SMILES: CCCCCCCCCCCCOCC(O)CO (stereo not drawn) [1-dodecyl glycerol ether]
Solubility [1]: < 0.1%
Solubility of mixture A + diols [2]: clear solution

SMILES: O [Water]
Surface tension, 1% in water, mN/m [3]: 71.9 mN/m

SMILES: CCCCC(CC)COCC(O)CO (stereo not drawn) [1-(2-ethylhexyl) glycerol ether]
Solubility [1]: 0.1%
Solubility of mixture A + diols [2]: clear solution
surface tension (change against addition of 10 parts of water) [3]: significantly decreased
Surface tension, 1% in water, mN/m [3]: 35.6 mN/m
Appearance of solution after stirring during 3 h [4, 5]: 2 phases
Appearance of solution after stirring during 3 h ([4]; 10.0 diol in potassium sorbate 7.5 / sodium benzoate 7.5 / water 75.0): 2 phases
Appearance of solution after stirring during 3 h [4, 6]: can dissolve
Appearance of solution after stirring during 3 h ([4]; 10.0 diol in potassium sorbate 10.0 / sodium benzoate 10.0 / water 70.0, listed as 1-(2-ethylhexyl)-glycerol ether): clear
Appearance of the solution after stirring during 3h [4, 7]: 2 phases
Appearance of solution after stirring during 3 h [4, 8]: can dissolve
Appearance of solution after stirring during 3 h ([4]; 10.0 diol in potassium sorbate 15.0 / sodium benzoate 15.0 / water 60.0, listed as 1-(2-ethylhexyl)-glycerol ether): clear
Appearance of the solution after stirring during 3h ([4]; 10.0 diol in potassium sorbate 15.0 / water 75.0): 2 phases
Appearance of the solution after stirring during 3h [4, 9]: clear
Appearance of the solution after stirring during 3h ([4]; 10.0 diol in potassium sorbate 20.0 / water 70.0, listed as 1-(2-ethylhexyloxy)glycerol ether): can dissolve
Appearance of solution after stirring during 3 h [4, 10]: can dissolve
Appearance of solution after stirring during 3 h ([4]; 10.0 diol in potassium sorbate 22.5 / sodium benzoate 22.5 / water 45.0, listed as 1-(2-ethylhexyl)-glycerol ether): clear
Appearance of the solution after stirring during 3h [4, 11]: clear
Appearance of the solution after stirring during 3h ([4]; 10.0 diol in potassium sorbate 30.0 / water 60.0, listed as 1-(2-ethylhexyloxy)glycerol ether): can dissolve
Appearance of the solution after stirring during 3h [4, 12]: clear
Appearance of the solution after stirring during 3h ([4]; 10.0 diol in potassium sorbate 45.0 / water 45.0, listed as 1-(2-ethylhexyloxy)glycerol ether): can dissolve
Appearance of solution after stirring during 3 h [4, 13]: 2 phases
Appearance of solution after stirring during 3 h ([4]; 10.0 diol in sodium benzoate 15.0 / water 75.0): 2 phases
Appearance of solution after stirring during 3 h [4, 14]: can dissolve; also recorded: clear
Appearance of solution after stirring during 3 h [4, 15]: can dissolve; also recorded: clear
Appearance of solution after stirring during 3 h [4, 16]: can dissolve; also recorded: clear
Appearance after stirring for 3 h [4, 17]: can dissolve neither; also recorded: not dissolved, 2 phases
Appearance after stirring for 3 h [4, 18]: not dissolved, 2 phases
Appearance after stirring for 3 h ([4]; 10.0 parts diol in sodium propionate 30.0 / fully demineralized water 60.0, listed as 1-(2-ethylhexyl)glycerol ether): can dissolve neither

The next lines start with results.

surface tension (change against addition of 10 parts of water) [3]: not observed
Surface tension, 1% in water, mN/m [3]: 72.3 mN/m
SMILES: CC(O)CO (stereo not drawn) [Propylene glycol, reference compound]

surface tension (change against addition of 10 parts of water) [3]: not observed
Surface tension, 1% in water, mN/m [3]: 72.2 mN/m
SMILES: OCC(O)CO [Glycerol (85%), Glycerol, reference compound]

Solubility [1]: 0.7%
Solubility of mixture A + diols [2]: clear solution
surface tension (change against addition of 10 parts of water) [3]: significantly decreased
Surface tension, 1% in water, mN/m [3]: 44.7 mN/m
Appearance of solution after stirring during 3 h [4, 5]: 2 phases
Appearance of solution after stirring during 3 h [4, 6]: can dissolve; also recorded: clear
Appearance of the solution after stirring during 3h [4, 7]: 2 phases
Appearance of solution after stirring during 3 h [4, 8]: can dissolve; also recorded: clear
Appearance of the solution after stirring during 3h [4, 9]: can dissolve; also recorded: clear
Appearance of solution after stirring during 3 h [4, 10]: can dissolve; also recorded: clear
Appearance of the solution after stirring during 3h [4, 11]: can dissolve; also recorded: clear
Appearance of the solution after stirring during 3h [4, 12]: can dissolve; also recorded: clear
Appearance of solution after stirring during 3 h [4, 13]: 2 phases
Appearance of solution after stirring during 3 h [4, 14]: can dissolve; also recorded: clear
Appearance of solution after stirring during 3 h [4, 15]: can dissolve; also recorded: clear
Appearance of solution after stirring during 3 h [4, 16]: can dissolve; also recorded: clear
SMILES: CCCCCCC(O)CO (stereo not drawn) [1,2-octanediol]
Appearance after stirring for 3 h [4, 17]: can dissolve neither; also recorded: not dissolved, 2 phases
Appearance after stirring for 3 h [4, 18]: can dissolve neither; also recorded: not dissolved, 2 phases
